The source made the active and inactive calls.
Legend:
Format in all cases: functional, organism-based
Rhizomucor miehei = assay: Antifungal activity against Mucor miehei
Staphylococcus aureus = assay: Antibacterial activity against Staphylococcus aureus
Desmodesmus subspicatus = assay: Antialgal activity against Scenedesmus subspicatus
Bacillus subtilis = assay: Antibacterial activity against Bacillus subtilis
Chlorella vulgaris = assay: Antialgal activity against Chlorella vulgaris
Candida albicans = assay: Antifungal activity against Candida albicans
[1] = test system: Streptomyces viridochromogenes; assay: Antibacterial activity against Streptomyces viridochromogenes
Chlorella sorokiniana = assay: Antialgal activity against Chlorella sorokiniana
Escherichia coli = assay: Antibacterial activity against Escherichia coli

Measured: Activity

C[C@@H](O)[C@@]1(C)NC(=O)c2ccccc2N1 (relative stereo)
inactive: Rhizomucor miehei | Staphylococcus aureus | Desmodesmus subspicatus | Bacillus subtilis | Chlorella vulgaris | Candida albicans | [1] | Chlorella sorokiniana | Escherichia coli

C[C@@H](O)[C@]1(C)NC(=O)c2ccccc2N1 (relative stereo)
inactive: Rhizomucor miehei | Staphylococcus aureus | Desmodesmus subspicatus | Bacillus subtilis | Chlorella vulgaris | Candida albicans | [1] | Chlorella sorokiniana | Escherichia coli

Reference: ChEMBL document CHEMBL1151247, “Quinazolin-4-one derivatives from Streptomyces isolates” (J Nat Prod, 2004)
